Results as given in patent US11884675B2, “Heterocyclic compounds as triggering receptor expressed on myeloid cells 2 agonists and methods of use” (AMGEN INC., priority 2020, dated 2024).

Target: hTREM2 (Homo sapiens, UniProt Q9NZC2)
Experiment: TREM2 activity by cellular Syk phosphorylation (AlphaScreen/AlphaLISA) in TREM2/DAP12-HEK cells, used for Examples 1-305
Format: cell-based
Set-up: expressed in transfected cells
Conditions: HEK293 Cells
Text: In vitro Measurement of Triggering Receptor Expressed on Myeloid Cells 2 activity using cellular phosphorylation of Spleen Tyrosine Kinase (“Syk”) Assays used for Examples 1-305
Pharmacological measurements of TREM2 signaling through DAP12 were made with TREM2 and DAP12 overexpressing HEK293 cells stable cell lines that had been single-cell cloned (“TREM2/DAP12-HEK”). The readout of the TREM2 signaling utilized Perkin Elmer AlphaScreen/AlphaLISA technology monitoring the phosphorylation levels of the Syk kinase. TREM2/DAP12-HEK cell lines were cultured in DMEM-F12 (Corning 10-092-CM) supplemented with 1X Penicillin/Streptomycin (Corning 30-002-CI), 1X GlutaMAX (Gibco 35050-061), and 10% Fetal Bovine Serum (Life Technologies 10099) referred to as “HEK Culture Medium”. Suspensions of TREM2/DAP12-HEK cells were prepared in HEK Culture Medium and dispensed into 384-well poly-D-lysine coated microplates (Corning 354661) at a density of 20,000 cells/well using a Multidrop Combi peristaltic microplate dispenser (Thermo), 25 μL volume of cell suspension/well. Plates containing cells were then incubated for 20 hours in a humidified cell culture incubator at 37° C. with 5% CO2 (Thermo). After incubation, culture medium was removed from all wells of each microplate and replaced with 20 μL of “Assay Buffer” comprised of DMEM-F12 (Corning 10-092-CM) supplemented with 1X Penicillin/Streptomycin (Corning 30-002-CI) and 0.1% Pluronic F-68 Polyol (MP Biomedical 092750049) using a Bravo 384-well pipette-based liquid handling system (Agilent). Assay Buffer contained diluted test articles (in 1% final DMSO concentration for compounds) or 100 nM anti-human/mouse TREM2 antibody (R&D Systems MAB17291) as a positive control, or 100 nM or rat IgG2B isotype Ab as a negative control (R&D Systems MAB0061). The plates were incubated with test articles and controls for 45 minutes at room temperature and then the medium was aspirated/removed from each well of the plates. A Multidrop Combi peristaltic liquid handler (Thermo) was used to dispense 15 μL/well of “Cell Lysis Immunoassay Buffer”. The Cell Lysis Immunoassay Buffer contained M-PER Mammalian Protein Extraction Reagent (Pierce/ThermoFisher 78505), 1X Halt Phosphatase Inhibitor Cocktail (ThermoFisher #78427), 0.1875 nM anti-phospho-Syk (Tyr525/526) (C87C1) rabbit mAb (Cell Signaling Technologies catalog #2710), and 1.5 nM biotinylated Mouse anti-human Syk (4D10) antibody (BD Biosciences, catalog #624008). Plates were incubated for 1 hour at room temperature after the addition of the Cell Lysis Immunoassay Buffer. The Multidrop Combi liquid handler was used to dispense 15 μL of AlphaScreen Acceptor Bead Solution containing 7.5 μg/mL anti-rabbit IgG (Fc specific) AlphaLISA Acceptor Beads (Perkin Elmer AL104R) in 1X Immunoassay buffer (Perkin Elmer AL000F) to each well of the microplates. The plates were incubated for 2 hours at room temperature. Following the incubation with the AlphaLISA Acceptor Bead Solution, a Multidrop Combi liquid handler (Thermo) was used to dispense 15 μL of AlphaScreen Donor Bead Solution containing 30 μg/mL of AlphaScreen Streptavidin Donor beads (Perkin Elmer 6760002B) in 1X Immunoassay buffer (Perkin Elmer AL000F) to each well of the microplates. Microplates were incubated for 2 hours protected from light sources as the AlphaScreen reagents are light sensitive. Once the final incubation was completed, an AlphaScreen signal was acquired from the donor and acceptor beads using an Envision high throughput multi-modal microplate reader (Perkin Elmer) calibrated to the plate type with the AlphaScreen mirror and filter-set in 384-well mode, 680 nanometer excitation wavelength. The total measurement time per well was 550 milliseconds with a 180 millisecond excitation time. […]

Chain of hTREM2 (Q9NZC2 19-230): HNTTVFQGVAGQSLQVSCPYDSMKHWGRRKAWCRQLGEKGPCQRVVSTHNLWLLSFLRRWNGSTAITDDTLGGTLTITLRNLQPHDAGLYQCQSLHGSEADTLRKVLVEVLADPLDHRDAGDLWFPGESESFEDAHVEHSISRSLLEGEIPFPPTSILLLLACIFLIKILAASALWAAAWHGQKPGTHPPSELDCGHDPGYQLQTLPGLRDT
Chain of hTREM2 (O43914 22-113 partner): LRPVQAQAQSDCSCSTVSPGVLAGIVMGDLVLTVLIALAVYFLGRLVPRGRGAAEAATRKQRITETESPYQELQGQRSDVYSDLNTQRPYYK

EC50 [nM]	hTREM2 Emax	SMILES
50 to 500	++++ (Emax>250)	Cc1ccc(-c2nc([C@@H]3CCO[C@@H](c4ccnc(C)c4)C3)nc3nc(C)c(C)nc23)c(F)c1 [Example 285, 4-(2-fluoro-4-methylphenyl)-6,7-dimethyl-2-((2R,4R)-2-(2-methylpyridin-4-yl)tetrahydro-2H-pyran-4-yl)pteridine]
3000 to 100000		Cc1nc2nc(N3CCO[C@H](c4cnn(C)c4)C3)nc(N3CCC[C@@H](F)C3)c2nc1C [Example 262, (R)-4-(4-((R)-3-fluoropiperidin-1-yl)-6,7-dimethylpteridin-2-yl)-2-(1-methyl-1H-pyrazol-4-yl)morpholine]
≤ 50	+++ (Emax>150 and ≤250)	COc1cc([C@H]2C[C@@H](c3nc(-c4ccc(Cl)cc4F)c4nc(C)c(C)nc4n3)CCO2)ccn1 (single isomer, unassigned) [Example 208]
≤ 50	++++ (Emax>250)	Cc1cc2c(-c3ccc(Cl)cc3F)nc(N3CCO[C@@H](c4cnn(C)c4)C3)cc2nc1C [Example 152, 5-(4-chloro-2-fluorophenyl)-2,3-dimethyl-7-((2S)-2-(1-methyl-1H-pyrazol-4-yl)-4-morpholinyl)-1,6-naphthyridine]
50 to 500	+++ (Emax>150 and ≤250)	Cc1ccc2c(-c3ccc(Cl)cc3F)cc(N3CCO[C@@H](c4cnn(C)c4)C3)nc2n1 [Example 156, 4-(4-chloro-2-fluorophenyl)-7-methyl-2-((2S)-2-(1-methyl-1H-pyrazol-4-yl)-4-morpholinyl)-1,8-naphthyridine]
500 to 3000	++ (Emax>100 and ≤150)	Cc1nc2nc(N3CCO[C@@H](c4cnn(C)c4)C3)nc(N3CC(C(F)(F)F)C3)c2nc1C [Example 30, 6,7-dimethyl-2-((2S)-2-(1-methyl-1H-pyrazol-4-yl)-4-morpholinyl)-4-(3-(trifluoromethyl)-1-azetidinyl)pteridine]
≤ 50	++ (Emax>100 and ≤150)	Cc1cc([C@H]2CN(c3nc(-c4ccc(F)cc4F)c4ncc(C)nc4n3)CCO2)ccn1 [Example 8, 4-(2,4-difluorophenyl)-7-methyl-2-((2S)-2-(2-methyl-4-pyridinyl)-4-morpholinyl)pteridine]
≤ 50	++++ (Emax>250)	Cc1nc2cc(N3CCO[C@@H](c4cnn(C)c4)C3)nc(-c3ccc(Cl)cc3F)c2nc1C [Example 79, 5-(4-chloro-2-fluorophenyl)-2,3-dimethyl-7-((2S)-2-(1-methyl-1H-pyrazol-4-yl)-4-morpholinyl)pyrido[3,4-b]pyrazine]
≤ 50	++++ (Emax>250)	Cc1nc2nc(N3CCOC(C4CCOC4)C3)nc(-c3ccc(Cl)cc3F)c2nc1C (centres unmarked) [Example 26, 4-(4-chloro-2-fluorophenyl)-6,7-dimethyl-2-(2-(tetrahydro-3-furanyl)-4-morpholinyl)pteridine]
50 to 500	+++ (Emax>150 and ≤250)	Cc1cc([C@@H]2CN(c3nc4nc(C)c(C)nc4c([C@H]4C[C@H](C(F)(F)F)C4)n3)CCO2)cnn1 [Example 52, 6,7-dimethyl-2-((2R)-2-(6-methyl-4-pyridazinyl)-4-morpholinyl)-4-(trans-3-(trifluoromethyl)cyclobutyl)pteridine]
50 to 500	++++ (Emax>250)	Cc1cnc2c(-c3ccc(Cl)cc3F)nc(N3CCO[C@@H](c4cnn(C)c4)C3)cc2n1 [Example 73, 5-(4-chloro-2-fluorophenyl)-2-methyl-7-((2S)-2-(1-methyl-1H-pyrazol-4-yl)-4-morpholinyl)pyrido[3,4-b]pyrazine]
50 to 500	+++ (Emax>150 and ≤250)	Cc1cc([C@H]2CN(c3cc4nc(C)c(C)nc4c([C@H]4C[C@H](C(F)(F)F)C4)n3)CCO2)ccn1 [Example 82]
500 to 3000	+++ (Emax>150 and ≤250)	CN1Cc2c(-c3ccc(Cl)cc3F)cc(N3CCO[C@H](c4cnn(C)c4)C3)nc2C1=O [Example 304, (R)-4-(4-chloro-2-fluorophenyl)-6-methyl-2-(2-(1-methyl-1H-pyrazol-4-yl)morpholino)-5,6-dihydro-7H-pyrrolo [3,4-b]pyridin-7-one]
≤ 50	+++ (Emax>150 and ≤250)	Cc1cc([C@H]2CN(c3nc(C4CCC(F)(F)CC4)c4nc(C)c(C)nc4n3)CCO2)ccn1 [Example 139, 4-(4,4-difluorocyclohexyl)-6,7-dimethyl-2-((2S)-2-(2-methyl-4-pyridinyl)-4-morpholinyl)pteridine]
≤ 50	++++ (Emax>250)	Cc1ccc(-c2nc(N3CCO[C@@H](c4ccnc(C)c4)C3)nc3nc(C)ccc23)c(F)c1 [Example 96, 4-(2-fluoro-4-methylphenyl)-7-methyl-2-((2S)-2-(2-methyl-4-pyridinyl)-4-morpholinyl)pyrido[2,3-d]pyrimidine]
50 to 500	+++ (Emax>150 and ≤250)	Cc1ncc([C@H]2C[C@@H](c3nc(-c4ccc(Cl)cc4F)c4nc(C)c(C)nc4n3)CCO2)cn1 (single isomer, unassigned) [Example 209]
50 to 500	+++ (Emax>150 and ≤250)	Cc1nc2nc([C@H]3CCO[C@@H](c4cnn(C)c4)C3)nc([C@H]3C[C@H](C(F)(F)F)C3)c2nc1C (single isomer, unassigned) [Example 205]
50 to 500	+ (Emax>45 and ≤100)	Cc1nc2nc(N3CCO[C@@H](c4cnn(C)c4)C3)nc([C@H]3CCC(C)(C)C3)c2nc1C [Example 302, (S)-4-(4-((S)-3,3-dimethylcyclopentyl)-6,7-dimethylpteridin-2-yl)-2-(1-methyl-1H-pyrazol-4-yl)morpholine]
≤ 50	+++ (Emax>150 and ≤250)	Cc1cc([C@H]2C[C@H](c3nc(-c4ccc(Cl)cc4F)c4nc(C)c(C)nc4n3)CCO2)ccn1 [Example 273, 4-(4-chloro-2-fluorophenyl)-6,7-dimethyl-2-((2R,4R)-2-(2-methylpyridin-4-yl)tetrahydro-2H-pyran-4-yl)pteridine]
50 to 500	+++ (Emax>150 and ≤250)	Cc1cc([C@@H]2C[C@@H](c3nc(-c4ccc(Cl)cc4F)c4ccc(C)nc4n3)CCO2)ccn1 (single isomer, unassigned) [Example 220]
3000 to 100000	+++ (Emax>150 and ≤250)	Cc1cnc2c(-c3ccc(Cl)cc3F)cc([C@@H]3CCO[C@H](c4cnn(C)c4)C3)nc2n1 [Example 271, 8-(4-chloro-2-fluorophenyl)-3-methyl-6-((2S,4R)-2-(1-methyl-1H-pyrazol-4-yl)tetrahydro-2H-pyran-4-yl)pyrido [2,3-b]pyrazine]
3000 to 100000	++++ (Emax>250)	Cc1cc([C@@H]2CN(c3cc4nc(C)ccc4c(-c4ccc(Cl)cc4F)n3)CCO2)ccn1 [Example 240, (R)-4-(5-(4-chloro-2-fluorophenyl)-2-methyl-1,6-naphthyridin-7-yl)-2-(2-methylpyridin-4-yl)morpholine]

SMILES	EC50 [nM]	hTREM2 Emax
Cc1cc([C@H]2CN(c3nc(C45CC(C(F)(F)F)(C4)C5)c4ncc(C)nc4n3)CCO2)ccn1 [Example 232, (S)-4-(7-methyl-4-(3-(trifluoromethyl)bicyclo[1.1.1]pentan-1-yl)pteridin-2-yl)-2-(2-methylpyridin-4-yl) morpholine]	≤ 50	++ (Emax>100 and ≤150)
Cc1ccc2c(-c3ccc(Cl)cc3F)nc(N3CCO[C@@H](c4cnn(C)c4)C3)cc2c1 [Example 147, 1-(4-chloro-2-fluorophenyl)-6-methyl-3-((2S)-2-(1-methyl-1H-pyrazol-4-yl)-4-morpholinyl) isoquinoline]	3000 to 100000	++++ (Emax>250)
